{"source": "patent US20130136772A1", "about": "“REGULATION OF IMMUNE RESPONSE BY COLOCYNTHIN AND/OR ITS DERIVATIVES” (priority 2010, published 2013)", "key": {"IL-4": {"system": "IL-4", "assay": "Intracellular IL-4 expression in SRBC immunised mice", "format": "in vivo, Swiss albino mice", "settings": "graded doses; significantly inhibited at 2.5, 5 and 10 mg/kg", "description": "Estimation of intracellular cytokines: The animals were immunized as mentioned above. After 6 days of drug administration, the animals were challenged on day 7. After 48 h of challenge, the blood was collected in the tubes containing EDTA (anti-coagulant) from retro-orbital plexes of animals to determine the effect of test material on the expression of intracellular IL-2 and IFN-γ (Th1) and IL-4 (Th2) cytokines. In this study, PE labeled IL-2 monoclonal antibody was used in one set and PE labeled IFN-γ and FITC labelled IL-4 monoclonal antibody was used in the other set of experimentation (FIG. 7, 8, 9)."}, "CD8+ T cells": {"system": "CD8+ T cells", "assay": "Lymphocyte immunophenotyping, CD8+ T cell population in SRBC immunised mice", "format": "in vivo, Swiss albino mice", "settings": "graded doses; most significant suppression at 5 and 10 mg/kg vs sensitized control", "excerpt": "Immunophenotyping focuses on lymphocyte populations involved in acquired immunity. Specific molecules present on the cell surface defines characteristics of lymphocytes such as state of activation or functional capabilities. Murine monoclonal antibodies conjugated to a fluorochrome and directed against co-receptors CD4 and CD8 were used in a multi parametric flowcytometric assay to quantify the lymphocyte subsets associated with the cell-mediated immune response.\nEstimation of T cell surface markers: On day 0, mice were immunized by injecting 200 μl of 5×10^9 SRBC/ml intraperitonially. Drug administration was carried out for 6 days including the day of immunization. Same amount of SRBC was used to challenge the animals on day 7. After 24 h of challenge, blood was taken from retro-orbital plexus of animals for estimation of CD4^+ and CD8^+ T cells. 100 μl of whole blood was taken in each tube and FITC (fluorescein isothiocyanate) labelled CD4+ and PE (phycoerythrin) labelled CD8+ monoclonal antibodies were added and mixed gently. Tubes were incubated in the dark for 30 min. at room temperature. Subsequently, 2 ml of 1× FACS lysing solution was added at room temperature with gentle mixing. Samples were again incubated at room temperature for 10 min. […]"}, "TNF-α": {"system": "TNF-α", "assay": "Intracellular TNF-α estimation in LPS activated murine neutrophils by flowcytometry", "format": "cell-based", "settings": "for Expression of intracellular TNF-alpha, Mean ± S.E: LPS 10 ng/ml, 3 h", "description": "Flowcytometric studies were carried out to determine the anti-inflammatory effect of AD-B-63B on TNF-α cytokine expression in LPS activated murine neutrophils. Neutrophils play essential roles in host defence through their ability to clear bacterial infections. Their inappropriate activation contributes to a variety of inflammatory diseases, from the acute respiratory distress syndrome to asthma, chronic obstructive pulmonary disease and rheumatoid arthritis. TNF-α was chosen as the target for anti-inflammatory activity because of the fact that it is a pro-inflammatory cytokine and plays a major role in the pathogenesis of septic shock induced by LPS (Lipopolysaccharide) endotoxin injection [Remick, D. G.; Strieter, R. M.; Eskandari, M. K.; Nguyen, D. T.; Genord, M. A.; Raiford, C. L. Am. J. Path. 1990, 136, 49.]. LPS is an important triggering factor for in vivo systemic inflammatory response [Bone, R. C. Chest 1991, 100, 802]. LPS activates neutrophils via engagement of TLR4 (Toll-like receptor 4),[Sabroe, I.; Read, R. C.; Whyte, M. K. B.; Dockrell, D. H.; Vogel, S. N.; Dower, S. K. J. Immunol. 2003, 171, 1630.] resulting in the induction of a characteristic pro-inflammatory phenotype and prolongation of cell lifespan [Lee, A.; Whyte, M. K. B.; Haslett, C. J. Leukoc. Biol. 1993, 54, 283].\nThe anti-inflammatory activity of AD-B-63B was measured by the estimation of intracellular tumor necrosis factor alpha (TNF-α) expression in a gated population of neutrophils [Clara, B., R. C. Arancha, G. M. Andre's, P. Atanasio, A. Julia, and O. Alberto. 2003. A new method for detecting TNF-α-secreting cells using direct immunofluorescence surface membrane stainings. J. Immuno. Methods 264:77-87.]. Murine blood was subjected to centrifugation at 250× g for 20 min. Three layers were formed: an upper layer of platelet-rich plasma, a buffy coat middle layer and a lower layer formed of red blood cells. The middle layer was removed and subjected to Histopaque 1077 (Sigma) gradient separation. The upper layer containing neutrophils was removed and transferred to FACS tubes (Becton Dickinson). Lipopolysaccharide (LPS) derived from Escherichia coli (Sigma) was added at a concentration of 10 ng/ml for the stimulation of the cells. AD-B-63B was added at graded concentrations of 0.5, 1, 2.5, 5, 10 and 20 μg/ml. Samples were incubated for 3 h at 37° C. ( Table 1) Controls consisted of LPS-stimulated cells (LPS control). Further processing was done by the addition of FACS permeabilizing solution (Becton Dickinson), followed by the addition of phycoerythrin (PE)-labeled anti-mouse TNF-α. (Becton Dickinson). The cells were incubated in the dark, and after being washed with sterile PBS, samples were resuspended in PBS (pH 7.4) and acquired directly on the flow cytometer (FACS CANTO; Becton Dickinson). A fluorescence trigger was set on the […] parameter of the gated neutrophil populations (10,000 events). Rolipram at 100 μg/ml was used as standard inhibitor of TNF-α in this study. Fluorescence compensation, data analysis and data presentation were performed using software (Becton Dickinson) (FIG. 1) [Pandey A, Bani S, Kaul S, Sangawan P L; 2010, Selective Th1 upregulation by ethyl acetate fraction of Labisia pumila; 132 (2010) 309-315]."}, "[1]": {"system": "peritoneal murine macrophages", "assay": "Phagocytosis of heat killed Candida albicans by murine macrophages (in vitro)", "format": "cell-based", "description": "The method of Lehrer (1981) [Lehrer, R. I. Ingestion and destruction of Candida albicans. (1981) In: Methods for studying mono-nuclear phagocytes. Eds. Adams, D. O., Edelson, P. J. and Koren, H. (Academic Press, New York) 693-7081 was followed. The percentage and average number of Candida albicans cells (heatkilled) ingested by peritoneal murine macrophages was calculated. AD-B-63B was tested at the doses of 1, 2.5, Sand 10 μg/mL (Table 4)."}}}
{"smiles": "CC(=O)OC(C)(C)/C=C/C(=O)[C@](C)(O)[C@H]1[C@H](O)C[C@@]2(C)[C@@H]3CC=C4[C@@H](C=C(O[C@@H]5O[C@H](CO)[C@@H](O)[C@H](O)[C@H]5O)C(=O)C4(C)C)[C@]3(C)C(=O)C[C@]12C", "note": "[AD-B-63B, 2-O-β-D-glucopyranosyl cucurbitacin E]", "values": [{"measurement": "expression of intracellular IL-4", "setting": "IL-4", "result": "decrease"}, {"measurement": "percentage of CD8+ T-cell population", "setting": "CD8+ T cells", "result": "decrease"}, {"measurement": "% TNF-alpha inhibition against LPS control", "setting": "TNF-α; 0.5 μg/ml", "result": "13.01↓ %"}, {"measurement": "Expression of intracellular TNF-alpha, Mean ± S.E", "setting": "TNF-α; 0.5 μg/ml", "result": "2.34 ± 0.07"}, {"measurement": "% TNF-alpha inhibition against LPS control", "setting": "TNF-α; 1.0 μg/ml", "result": "24.16↓ %"}, {"measurement": "Expression of intracellular TNF-alpha, Mean ± S.E", "setting": "TNF-α; 1.0 μg/ml", "result": "2.04 ± 0.06"}, {"measurement": "% TNF-alpha inhibition against LPS control", "setting": "TNF-α; 5.0 μg/ml", "result": 50.55, "unit": "%"}, {"measurement": "Expression of intracellular TNF-alpha, Mean ± S.E", "setting": "TNF-α; 5.0 μg/ml", "result": "1.33 ± 0.06"}, {"measurement": "% TNF-alpha inhibition against LPS control", "setting": "TNF-α; 10.0 μg/ml", "result": 60.59, "unit": "%"}, {"measurement": "Expression of intracellular TNF-alpha, Mean ± S.E", "setting": "TNF-α; 10.0 μg/ml", "result": "1.06 ± 0.03"}, {"measurement": "Expression of intracellular TNF-alpha, Mean ± S.E", "setting": "TNF-α; […]", "result": "1.84 ± 0.03"}, {"measurement": "% phagocytosis [in vitro study] Mean ± S.E.", "setting": "[1]; 1 μg/ml", "result": "24.00 ± 2.32", "unit": "%"}, {"measurement": "percent decrease in phagocytosis", "setting": "[1]; 1 μg/ml", "result": "(10.48%↓)"}, {"measurement": "% phagocytosis [in vitro study] Mean ± S.E.", "setting": "[1]; 5 μg/ml", "result": "18.22 ± 2.11", "unit": "%"}, {"measurement": "% phagocytosis [in vitro study] Mean ± S.E.", "setting": "[1]; 10 μg/ml", "result": "17.33 ± 1.42", "unit": "%"}]}
